From patent publication EP0832650A2 (ELI LILLY AND COMPANY, priority 1996, dated 1998)
Where a name gives a salt, the structure may show the parent alone.

The compounds below were run on neuronal protein extravasation (assay: Neuronal protein extravasation in dura after electrical stimulation of the trigeminal ganglion). Details: 10 minutes before trigeminal ganglion stimulation, dose inhibiting extravasation by 50%, approximated from dose-response curve, species (rat or guinea pig) not given.
Type: in vivo, Harlan Sprague-Dawley rats or guinea pigs
Experimental: Harlan Sprague-Dawley rats (250-350 g) or guinea pigs from Charles River Laboratories (250-350 g) were anesthetized with sodium pentobarbital intraperitoneally (65 mg/kg or 45 mg/kg respectively) and placed in a stereotaxic frame (David Kopf Instruments) with the incisor bar set at -3.5 mm for rats or -4.0 mm for guinea pigs. Following a midline sagital scalp incision, two pairs of bilateral holes were drilled through the skull (6 mm posteriorly, 2.0 and 4.0 mm laterally in rats; 4 mm posteriorly and 3.2 and 5.2 mm laterally in guinea pigs, all coordinates referenced to bregma) . Pairs of stainless steel stimulating electrodes, insulated except at the tips, (Rhodes Medical Systems, Inc.) were lowered through the holes in both hemispheres to a depth of 9 mm (rats) or 10.5 mm (guinea pigs) from dura.
The femoral vein was exposed and a dose of the test compound was injected intravenously (1 mL/kg). Approximately 7 minutes later, a 50 mg/kg dose of Evans Blue, a fluorescent dye, was also injected intravenously. The Evans Blue complexed with proteins in the blood and functioned as a marker for protein extravasation. Exactly 10 minutes post-injection of the test compound, the left trigeminal ganglion was stimulated for 3 minutes at a current intensity of 1.0 mA (5 Hz, 4 msec duration) with a Model 273 potentiostat/ galvanostat (EG&G Princeton Applied Research).
Fifteen minutes following stimulation, the animals were killed by exsanguination with 40 mL of saline. The top of the skull was removed to facilitate the collection of the dural membranes. The membrane samples were removed from both hemispheres, rinsed with water, and spread flat on microscopic slides. Once dried, the tissues were coverslipped with a 70% glycerol/water solution.
A fluorescence microscope (Zeiss) equipped with a grating monochromator and a spectrophotometer was used to quantify the amount of Evans Blue dye in each sample. An excitation wavelength of approximately 535 nm was utilized and the emission intensity at 600 nm was determined. The microscope was equipped with a motorized stage and also interfaced with a personal computer. This facilitated the computer-controlled movement of the stage with fluorescence measurements at 25 points (500 µm steps) on each dural sample. The mean and standard deviation of the measurements was determined by the computer.
The extravasation induced by the electrical stimulation of the trigeminal ganglion was an ipsilateral effect (i.e. occurs only on the side of the dura in which the trigeminal ganglion was stimulated). This allows the other (unstimulated) half of the dura to be used as a control. The ratio of the amount of extravasation in the dura from the stimulated side compared to the unstimulated side dura was calculated. Saline controls yielded a ratio of approximately 2.0 in rats and 1.8 in guinea pigs. […]

Row | SMILES | Inhibition of Protein Extravasation i.v. ID50
1 | CCN(CC)C1CCc2cccc(Cl)c2C1.Cl (centres unmarked) [Compound IV, 8-chloro-2-diethylamino-1,2,3,4-tetrahydronaphthalene hydrochloride] | 1.2e-07 mmol/kg
2 | CNS(=O)(=O)Cc1ccc2[nH]cc(CCN(C)C)c2c1.O=C(O)CCC(=O)O [Compound I, 3-[2-(dimethylamino)ethyl]-N-methyl-1H-indole-5-methanesulfonamide butane-1,4-dioate (1:1)] | 2.6e-08 mmol/kg
3 | Cn1cc(CCN2CCC(c3c[nH]c4ccc(F)cc34)CC2)cn1 [Compound II, 5-fluoro-3-<1-<2-<1-methyl-1H-pyrazol-4-yl>ethyl>-4-piperidinyl>-1H-indole hydrochloride] | 8.6e-10 mmol/kg
4 | CN(C)C1CCc2[nH]c3ccc(O)cc3c2C1 (centres unmarked) [Compound V, 6-hydroxy-3-dimethylamino-1,2,3,4-tetrahydrocarbazole] | 8.7e-09 mmol/kg
5 | O=C(O)C(=O)O.Oc1ccc2[nH]cc(C3CCNCC3)c2c1 [Compound III, 5-hydroxy-3-(4-piperidinyl)-1H-indole oxalate] | 8.9e-09 mmol/kg
